{"source": "patent US9215877B2", "about": "“Compositions including a vacancy-engineered(VE)-ZnO nanocomposite, methods of making a composition , method of using a composition” (priority 2014, dated 2015)", "system": "E. coli", "experiment": "Minimum inhibitory concentration (MIC) against E. coli", "assay_type": "cell-based", "conditions": "Escherichia coli, read-out: MIC (μg/mL) in metallic Zn or Cu", "data": [{"smiles": "O=C([O-])c1ccccc1O.[Na+]", "note": "[Capping Agent, sodium salicylate]", "values": [{"measurement": "MIC", "value": 3000, "unit": "µg/mL"}]}]}
